From patent US12703729B2, “GIP agonist compounds and methods” (Zealand Pharma A/S, priority 2014, dated 2026) come the findings set out here.

Data set [1] has as its target human GLP-1 receptor (GLP-1R) (Homo sapiens, UniProt P43220). The experiment in a line: Activity assay at human GLP-1 receptor, cAMP induction (AlphaScreen), Example 3. On the technique in general: Alpha assays give light when donor and acceptor beads are brought close together.
In another data set the target is T1, human GIP R (Homo sapiens, UniProt P48546).
T1 sequence (P48546 22-466): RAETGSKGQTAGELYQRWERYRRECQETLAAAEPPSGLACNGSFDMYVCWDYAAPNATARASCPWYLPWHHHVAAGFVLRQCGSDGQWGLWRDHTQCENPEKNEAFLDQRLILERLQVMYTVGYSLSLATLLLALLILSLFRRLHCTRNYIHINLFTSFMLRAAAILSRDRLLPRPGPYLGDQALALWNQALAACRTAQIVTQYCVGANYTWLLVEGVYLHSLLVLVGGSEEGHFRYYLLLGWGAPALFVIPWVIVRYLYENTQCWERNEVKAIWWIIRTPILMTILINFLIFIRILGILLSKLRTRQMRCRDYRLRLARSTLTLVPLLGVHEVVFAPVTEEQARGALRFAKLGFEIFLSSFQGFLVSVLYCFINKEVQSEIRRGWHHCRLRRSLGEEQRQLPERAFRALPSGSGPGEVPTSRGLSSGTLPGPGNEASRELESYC
The experiment in a line: cell-based.

Data set [2] has as its target T2, human GIP receptor (GIP R) (Homo sapiens, UniProt P48546).
T2 sequence (P48546 22-466): T1 sequence (P48546 22-466)
In words: Activity assay at human GIP receptor, cAMP induction (AlphaScreen), Example 3.

Another data set in a line: in vivo. Conditions: male, C57BL/6J, mouse; for half-life: 200 nmol/kg.
The conditions of data set [3]: male, C57BL/6J, mouse, in vivo.

Starred links: 1 amine or outer side, 2 acyl side, 3 side chain; linkers in the order of their positions; H or OH if unused. Non-standard residues stand in square brackets, D forms with d. Residues, ends and D or L forms follow the SMILES beside them. Groups on a side chain read outwards from the residue. *: point of attachment. C20 diacid = O=C(O)CCCCCCCCCCCCCCCCCCC(=O)*; γGlu = O=C(O)[C@H](CCC(=O)[*:2])N[*:1]; AEEA = NCCOCCOCC(=O)O; Aib = CC(C)(N)C(=O)O

Sequence of human GLP-1 receptor (GLP-1R) (P43220 24-463): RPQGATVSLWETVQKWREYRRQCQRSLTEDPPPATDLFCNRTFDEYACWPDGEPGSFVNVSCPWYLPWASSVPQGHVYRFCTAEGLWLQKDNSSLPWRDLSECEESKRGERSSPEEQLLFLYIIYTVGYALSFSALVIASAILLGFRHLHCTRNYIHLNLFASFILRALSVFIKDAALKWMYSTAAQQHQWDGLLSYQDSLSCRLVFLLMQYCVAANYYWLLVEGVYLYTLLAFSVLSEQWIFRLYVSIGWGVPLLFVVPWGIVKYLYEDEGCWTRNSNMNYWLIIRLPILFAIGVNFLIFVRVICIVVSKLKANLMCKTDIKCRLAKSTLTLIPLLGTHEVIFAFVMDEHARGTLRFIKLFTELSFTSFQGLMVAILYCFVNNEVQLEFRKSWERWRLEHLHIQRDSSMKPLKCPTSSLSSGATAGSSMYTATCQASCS

Take `CC[C@H](C)[C@H](NC(=O)[C@H](CCCCN)NC(=O)[C@H](CC(=O)O)NC(=O)[C@H](CC(C)C)NC(=O)[C@H](CCC(=O)O)NC(=O)[C@@H](NC(=O)[C@H](CO)NC(=O)[C@H](Cc1ccc(O)cc1)NC(=O)[C@H](CC(=O)O)NC(=O)[C@H](CO)NC(=O)[C@@H](NC(=O)[C@H](Cc1ccccc1)NC(=O)[C@@H](NC(=O)CNC(=O)[C@H](CCC(=O)O)NC(=O)C(C)(C)NC(=O)[C@@H](N)Cc1ccc(O)cc1)[C@@H](C)O)[C@@H](C)CC)[C@@H](C)CC)C(=O)N[C@@H](C)C(=O)N[C@@H](C)C(=O)N[C@@H](CCC(N)=O)C(=O)N[C@@H](CC(=O)O)C(=O)N[C@@H](Cc1ccccc1)C(=O)N[C@H](C(=O)N[C@@H](CC(N)=O)C(=O)N[C@@H](Cc1c[nH]c2ccccc12)C(=O)N[C@@H](CC(C)C)C(=O)N[C@@H](CC(C)C)C(=O)N[C@@H](C)C(=O)NCC(=O)N1CCC[C@H]1C(=O)N[C@@H](CO)C(=O)N[C@@H](CO)C(=O)NCC(=O)N[C@@H](C)C(=O)N1CCC[C@H]1C(=O)N1CCC[C@H]1C(=O)N1CCC[C@H]1C(=O)N[C@@H](CO)C(=O)N[C@@H](CCCCNC(=O)COCCOCCNC(=O)COCCOCCNC(=O)CC[C@H](NC(=O)CCCCCCCCCCCCCCCCCCC(=O)O)C(=O)O)C(N)=O)C(C)C` [Compound 16] (H-Y[Aib]EGTFISDYSIELDKIAAQDFVNWLLAGPSSGAPPPSK([AEEA-AEEA-γGlu-C20 diacid])-NH2): the EC50 in data set [1] is above 10 nM; at human GIP R, 0.016 nM; in data set [2], 0.012 nM. In “in vivo” (Bioavailability s.c.), this compound had a bioavailability of 81%. For the same compound, the half-life is 23.3 h in “in vivo” (iv, Terminal elimination half-life T½ i.v.) and 23.6 h in “in vivo” (sc, Terminal elimination half-life T½ s.c.). Besides, the Tmax in “in vivo” (sc) stood at 8 h. In addition, the Bioavailability s.c. in data set [3] stood at 88%. Also, the “Terminal elimination half-life T½ i.v.” value in data set [3] (iv, 200 nmol/kg) came to 19.2 h. In addition, the “Terminal elimination half-life T½ s.c.” value in data set [3] (sc, 200 nmol/kg) was 16.7 h.

One may read the EC50 as the concentration that produces a half-maximal response. Higher therefore signals lower potency in that assay. For orientation: bioavailability means the share of a dose that reaches the circulation, judged against a reference dose that is usually intravenous. What is called half-life is how long it takes for the measured level to halve. A low value points to fast loss. A word on the Tmax: it is the time from dosing to the highest level.
